In ChEMBL document CHEMBL1201862, “PubChem BioAssay data set” (2004):
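Compound exposure: 48 hours, 5 concentrations, 96-well plates. GI50 = concentration required for 50% inhibition of growth.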 Activity calls are given as the source filed them. Cut-off read from the data, not from the text of the source: active = GI50 up to about 1.1 µM and inactive = higher.

What was measured:
Experiment in all cases: growth of human tumour cells (NCI), 48 h
UACC-62 = test system: UACC-62
NCI-H226 = test system: NCI-H226
NCI/ADR-RES = test system: NCI/ADR-RES
SF-539 = test system: SF-539
T47D = test system: T47D
A498 = test system: A498
BT-549 = test system: BT-549
786-0 = test system: 786-0
IGROV-1 = test system: IGROV-1
DU-145 = test system: DU-145
CCRF-CEM = test system: CCRF-CEM
CAKI-1 = test system: CAKI-1
HOP-62 = test system: HOP-62
HL-60 = test system: HL-60
COLO 205 = test system: COLO 205
OVCAR-4 = test system: OVCAR-4
NCI-H23 = test system: NCI-H23
M14 = test system: M14
RXF 393 = test system: RXF 393
UO-31 = test system: UO-31
PC-3 = test system: PC-3
HCC 2998 = test system: HCC 2998
MOLT-4 = test system: MOLT-4
SK-MEL-28 = test system: SK-MEL-28
KM12 = test system: KM12
OVCAR-3 = test system: OVCAR-3
UACC-257 = test system: UACC-257
SF-295 = test system: SF-295
ACHN = test system: ACHN
HCT-116 = test system: HCT-116
SW-620 = test system: SW-620
HCT-15 = test system: HCT-15
HOP-92 = test system: HOP-92
RPMI-8226 = test system: RPMI-8226
EKVX = test system: EKVX
K562 = test system: K562
HT-29 = test system: HT-29
OVCAR-5 = test system: OVCAR-5
A549 = test system: A549
OVCAR-8 = test system: OVCAR-8
MDA-MB-231 = test system: MDA-MB-231
MDA-N = test system: MDA-N
MDA-MB-435 = test system: MDA-MB-435
Malme-3M = test system: Malme-3M
MCF7 = test system: MCF7
U-251 = test system: U-251
SN12C = test system: SN12C
NCI-H460 = test system: NCI-H460
SR = test system: SR
SF-268 = test system: SF-268
TK-10 = test system: TK-10
SNB-19 = test system: SNB-19
SK-MEL-5 = test system: SK-MEL-5
SK-MEL-2 = test system: SK-MEL-2
SNB-75 = test system: SNB-75
NCI-H522 = test system: NCI-H522
LOX IMVI = test system: LOX IMVI
SK-OV-3 = test system: SK-OV-3
Hs-578T = test system: Hs-578T

## C=C(C)C1Cc2c(cc(O)c3c(=O)c4c(oc23)C(O)Oc2cc(OC)c(OC)cc2-4)O1 (stereo unspecified)
UACC-62
  GI50: > 10 µM (inactive)
NCI-H226
  GI50: 6.97 µM (inactive)
NCI/ADR-RES
  GI50: > 10 µM (inactive)
SF-539
  GI50: > 10 µM (inactive)
T47D
  GI50: > 10 µM (inactive)
A498
  GI50: > 10 µM (inactive)
BT-549
  GI50: > 10 µM (inactive)
786-0
  GI50: > 10 µM (inactive)
IGROV-1
  GI50: > 10 µM (inactive)
DU-145
  GI50: > 10 µM (inactive)
CCRF-CEM
  GI50: > 10 µM (inactive)
CAKI-1
  GI50: > 10 µM (inactive)
HOP-62
  GI50: > 10 µM (inactive)
HL-60
  GI50: > 10 µM (inactive)
COLO 205
  GI50: > 10 µM (inactive)
OVCAR-4
  GI50: > 10 µM (inactive)
NCI-H23
  GI50: > 10 µM (inactive)
M14
  GI50: > 10 µM (inactive)
RXF 393
  GI50: > 10 µM (inactive)
UO-31
  GI50: > 10 µM (inactive)
PC-3
  GI50: > 10 µM (inactive)
HCC 2998
  GI50: > 10 µM (inactive)
MOLT-4
  GI50: > 10 µM (inactive)
SK-MEL-28
  GI50: > 10 µM (inactive)
KM12
  GI50: > 10 µM (inactive)
OVCAR-3
  GI50: > 10 µM (inactive)
UACC-257
  GI50: > 10 µM (inactive)
SF-295
  GI50: > 10 µM (inactive)
ACHN
  GI50: > 10 µM (inactive)
HCT-116
  GI50: > 10 µM (inactive)
SW-620
  GI50: > 10 µM (inactive)
HCT-15
  GI50: > 10 µM
HOP-92
  GI50: > 10 µM (inactive)
RPMI-8226
  GI50: > 10 µM (inactive)
EKVX
  GI50: > 10 µM (inactive)
K562
  GI50: > 10 µM (inactive)
HT-29
  GI50: > 10 µM (inactive)
OVCAR-5
  GI50: > 10 µM (inactive)
A549
  GI50: > 10 µM (inactive)
OVCAR-8
  GI50: > 10 µM (inactive)
MDA-MB-231
  GI50: > 10 µM (inactive)
MDA-N
  GI50: > 10 µM (inactive)
MDA-MB-435
  GI50: > 10 µM (inactive)
Malme-3M
  GI50: > 10 µM (inactive)
MCF7
  GI50: > 10 µM (inactive)
U-251
  GI50: > 10 µM (inactive)
SN12C
  GI50: > 10 µM (inactive)
NCI-H460
  GI50: > 10 µM (inactive)
SR
  GI50: > 10 µM (inactive)
SF-268
  GI50: > 10 µM (inactive)
TK-10
  GI50: > 10 µM (inactive)
SNB-19
  GI50: > 10 µM (inactive)

## O=[N+]([O-])c1ccc(CSc2nncc3[nH]cnc23)cc1
UACC-62
  GI50: 62.4 µM (inactive)
NCI-H226
  GI50: > 100 µM (inactive)
NCI/ADR-RES
  GI50: > 100 µM (inactive)
SF-539
  GI50: > 100 µM (inactive)
T47D
  GI50: > 100 µM (inactive)
SK-MEL-5
  GI50: > 100 µM (inactive)
A498
  GI50: > 100 µM (inactive)
BT-549
  GI50: 85.3 µM (inactive)
786-0
  GI50: > 100 µM (inactive)
IGROV-1
  GI50: > 100 µM (inactive)
CCRF-CEM
  GI50: > 100 µM (inactive)
CAKI-1
  GI50: > 100 µM (inactive)
HOP-62
  GI50: > 100 µM (inactive)
SK-MEL-2
  GI50: 83.6 µM (inactive)
HL-60
  GI50: > 100 µM (inactive)
COLO 205
  GI50: > 100 µM (inactive)
OVCAR-4
  GI50: > 100 µM (inactive)
NCI-H23
  GI50: > 100 µM (inactive)
M14
  GI50: > 100 µM (inactive)
UO-31
  GI50: 33.4 µM (inactive)
PC-3
  GI50: > 100 µM (inactive)
HCC 2998
  GI50: > 100 µM (inactive)
MOLT-4
  GI50: > 100 µM (inactive)
SK-MEL-28
  GI50: > 100 µM (inactive)
KM12
  GI50: > 100 µM (inactive)
OVCAR-3
  GI50: > 100 µM (inactive)
UACC-257
  GI50: > 100 µM (inactive)
SF-295
  GI50: 65.2 µM (inactive)
ACHN
  GI50: 77.4 µM (inactive)
HCT-116
  GI50: > 100 µM (inactive)
SW-620
  GI50: > 100 µM (inactive)
HCT-15
  GI50: > 100 µM
SNB-75
  GI50: 80.2 µM (inactive)
HOP-92
  GI50: 10.6 µM (inactive)
RPMI-8226
  GI50: > 100 µM (inactive)
EKVX
  GI50: > 100 µM (inactive)
K562
  GI50: 84.9 µM (inactive)
HT-29
  GI50: > 100 µM (inactive)
OVCAR-5
  GI50: > 100 µM (inactive)
A549
  GI50: > 100 µM (inactive)
OVCAR-8
  GI50: > 100 µM (inactive)
MDA-MB-231
  GI50: > 100 µM (inactive)
NCI-H522
  GI50: > 100 µM (inactive)
MDA-N
  GI50: > 100 µM (inactive)
LOX IMVI
  GI50: > 100 µM (inactive)
MDA-MB-435
  GI50: 93.1 µM (inactive)
Malme-3M
  GI50: 66.8 µM (inactive)
MCF7
  GI50: > 100 µM (inactive)
U-251
  GI50: > 100 µM (inactive)
SN12C
  GI50: > 100 µM (inactive)
SR
  GI50: > 100 µM (inactive)
SK-OV-3
  GI50: > 100 µM (inactive)
TK-10
  GI50: > 100 µM (inactive)

## CN(C)CCNC(=O)c1cccc2c(NC(CS)C(=O)O)c3ccccc3[n+](C)c12 (stereo unspecified)
UACC-62
  GI50: 61.2 µM (inactive)
NCI/ADR-RES
  GI50: 33.8 µM (inactive)
SF-539
  GI50: 80.4 µM (inactive)
T47D
  GI50: 64.9 µM (inactive)
SK-MEL-5
  GI50: 47 µM (inactive)
A498
  GI50: 77.4 µM (inactive)
BT-549
  GI50: 35.6 µM (inactive)
786-0
  GI50: 69.2 µM (inactive)
IGROV-1
  GI50: 43.8 µM (inactive)
DU-145
  GI50: 37.6 µM (inactive)
HOP-62
  GI50: 60.8 µM (inactive)
SK-MEL-2
  GI50: > 100 µM (inactive)
COLO 205
  GI50: 43.9 µM (inactive)
OVCAR-4
  GI50: > 100 µM (inactive)
NCI-H23
  GI50: 89.5 µM (inactive)
M14
  GI50: > 100 µM (inactive)
UO-31
  GI50: 71.8 µM (inactive)
PC-3
  GI50: 49 µM (inactive)
HCC 2998
  GI50: 50 µM (inactive)
MOLT-4
  GI50: 41.9 µM (inactive)
SK-MEL-28
  GI50: > 100 µM (inactive)
KM12
  GI50: > 100 µM (inactive)
OVCAR-3
  GI50: 81.3 µM (inactive)
UACC-257
  GI50: 60.3 µM (inactive)
SF-295
  GI50: > 100 µM (inactive)
ACHN
  GI50: 35.5 µM (inactive)
HCT-116
  GI50: 41.1 µM (inactive)
SW-620
  GI50: 39.7 µM (inactive)
HCT-15
  GI50: > 100 µM
SNB-75
  GI50: 41.6 µM (inactive)
RPMI-8226
  GI50: > 100 µM (inactive)
EKVX
  GI50: 56.9 µM (inactive)
K562
  GI50: 87.9 µM (inactive)
HT-29
  GI50: 99.3 µM (inactive)
OVCAR-5
  GI50: > 100 µM (inactive)
A549
  GI50: 62.1 µM (inactive)
Hs-578T
  GI50: > 100 µM (inactive)
OVCAR-8
  GI50: 56.8 µM (inactive)
MDA-MB-231
  GI50: 41.4 µM (inactive)
LOX IMVI
  GI50: 32.8 µM (inactive)
MDA-MB-435
  GI50: 68.5 µM (inactive)
Malme-3M
  GI50: 30.2 µM (inactive)
MCF7
  GI50: 95.5 µM (inactive)
U-251
  GI50: > 100 µM (inactive)
SN12C
  GI50: 49.4 µM (inactive)
NCI-H460
  GI50: 45.5 µM (inactive)
SR
  GI50: 22.7 µM (inactive)
SF-268
  GI50: 23.6 µM (inactive)
SK-OV-3
  GI50: > 100 µM (inactive)
TK-10
  GI50: > 100 µM (inactive)
SNB-19
  GI50: 84.7 µM (inactive)
